Measured values taken from publication PMC12257397, “Scaffold Hopping Strategy toward New 4‑Aminoquinazolines Active Against Extracellular and Intracellular Mycobacterium tuberculosis” (ACS Medicinal Chemistry Letters, 2025).
In brackets after ≈: the same amount, converted by molar mass.

Legend:
[1] = tested on: M. tuberculosis QcrB T313I; conditions: given in Figure 1A; cited from earlier work
[2] = tested on: M. tuberculosis QcrB M342T; conditions: given in Figure 1A; cited from earlier work
[3] = tested on: M. tuberculosis qcrCAB (A178T); conditions: given in Figure 1A; cited from earlier work
[4] = tested on: M. tuberculosis LP-0497754-RM301, MmpL3 triple mutant (F255L, V646M, F644I); type: cell-based, Mycobacterium tuberculosis
[5] = tested on: M. tuberculosis LP-0106898-RM1 (QcrB T313I); type: cell-based, Mycobacterium tuberculosis

FC(F)(F)c1ccc(CCNc2cc(-c3ccccn3)nc3ncnn23)cc1 [1 (TAP)]
MIC QcrB T313I [1]: > 20 µM
MIC QcrB M342T [2]: 10 µM (≈ 3.84 µg/mL)

CCc1nc2ccc(C)cc2n1CCCNc1ccccc1 [2 (FABA)]
MIC QcrB T313I [1]: 8.7 µM (≈ 2.55 µg/mL)
MIC QcrB M342T [2]: 4.1 µM (≈ 1.2 µg/mL)

CCc1nc(NCCCc2ccccc2)c2cc(C)sc2n1 [3 (CWHM-1023)]
IC50 [3]: > 500 nM

Cc1nc(NCCc2ccccc2)c2cc(I)ccc2n1 [9d]
MIC MmpL3 (F255L, V646M, F644I) [4]: 0.89 µM (≈ 0.346 µg/mL)
MIC QcrBT313I [5]: 0.67 µM (≈ 0.261 µg/mL)

COc1ccc(CCNc2nc(C)nc3ccc(I)cc23)cc1 [10d]
MIC MmpL3 (F255L, V646M, F644I) [4]: 1.5 µM (≈ 0.629 µg/mL)
MIC QcrBT313I [5]: 1.2 µM (≈ 0.503 µg/mL)

Cc1nc(NCCc2ccc(Cl)cc2)c2cc(I)ccc2n1 [11d]
MIC MmpL3 (F255L, V646M, F644I) [4]: 1.0 µM (≈ 0.424 µg/mL)
MIC QcrBT313I [5]: 0.80 µM (≈ 0.339 µg/mL)

Cc1nc(NCCc2ccc(OC(F)(F)F)cc2)c2cc(Br)ccc2n1 [13c]
MIC MmpL3 (F255L, V646M, F644I) [4]: 5.4 µM (≈ 2.3 µg/mL)
MIC QcrBT313I [5]: 4.0 µM (≈ 1.7 µg/mL)

Cc1nc(NCCc2ccc(OC(F)(F)F)cc2)c2cc(I)ccc2n1 [13d]
MIC MmpL3 (F255L, V646M, F644I) [4]: 8.3 µM (≈ 3.93 µg/mL)
MIC QcrBT313I [5]: 5.2 µM (≈ 2.46 µg/mL)

Cc1ccc(CCNc2nc(C)nc3ccc(I)cc23)cc1 [15d]
MIC MmpL3 (F255L, V646M, F644I) [4]: 0.89 µM (≈ 0.359 µg/mL)
MIC QcrBT313I [5]: 0.70 µM (≈ 0.282 µg/mL)

CCc1ccc(CCNc2nc(C)nc3ccc(Br)cc23)cc1 [16c]
MIC MmpL3 (F255L, V646M, F644I) [4]: 3.4 µM (≈ 1.26 µg/mL)
MIC QcrBT313I [5]: 2.4 µM (≈ 0.889 µg/mL)

CCc1ccc(CCNc2nc(C)nc3ccc(I)cc23)cc1 [16d]
MIC MmpL3 (F255L, V646M, F644I) [4]: 2.3 µM (≈ 0.96 µg/mL)
MIC QcrBT313I [5]: 1.8 µM (≈ 0.751 µg/mL)

Cc1nc(NCCc2ccc3ccccc3c2)c2cc(Br)ccc2n1 [17c]
MIC MmpL3 (F255L, V646M, F644I) [4]: 2.6 µM (≈ 1.02 µg/mL)
MIC QcrBT313I [5]: 2.2 µM (≈ 0.863 µg/mL)

Cc1nc(NCCc2ccc3ccccc3c2)c2cc(I)ccc2n1 [17d]
MIC MmpL3 (F255L, V646M, F644I) [4]: 1.4 µM (≈ 0.615 µg/mL)
MIC QcrBT313I [5]: 1.2 µM (≈ 0.527 µg/mL)

Cc1nc(NCCCc2ccccc2)c2ccccc2n1 [18a]
MIC MmpL3 (F255L, V646M, F644I) [4]: 1.2 µM (≈ 0.333 µg/mL)
MIC QcrBT313I [5]: 1.0 µM (≈ 0.277 µg/mL)

COc1ccc2nc(C)nc(NCCCc3ccccc3)c2c1 [18b]
MIC MmpL3 (F255L, V646M, F644I) [4]: 1.5 µM (≈ 0.461 µg/mL)
MIC QcrBT313I [5]: 1.3 µM (≈ 0.4 µg/mL)

Cc1nc(NCCCc2ccccc2)c2cc(Br)ccc2n1 [18c]
MIC MmpL3 (F255L, V646M, F644I) [4]: < 0.19 µM
MIC QcrBT313I [5]: <0.19 µM

Cc1nc(NCCCc2ccccc2)c2cc(I)ccc2n1 [18d]
MIC MmpL3 (F255L, V646M, F644I) [4]: 0.64 µM (≈ 0.258 µg/mL)
MIC QcrBT313I [5]: 0.48 µM (≈ 0.194 µg/mL)

c1ccc(CCCNc2ncnc3ccccc23)cc1 [18e]
MIC MmpL3 (F255L, V646M, F644I) [4]: 39.0 µM (≈ 10.3 µg/mL)
MIC QcrBT313I [5]: 29.0 µM (≈ 7.64 µg/mL)

CO[C@H]1/C=C/O[C@@]2(C)Oc3c(C)c(O)c4c(O)c(c(/C=N/N5CCN(C)CC5)c(O)c4c3C2=O)NC(=O)/C(C)=C\C=C\[C@H](C)[C@H](O)[C@@H](C)[C@@H](O)[C@@H](C)[C@H](OC(C)=O)[C@@H]1C [20 (RIF), rifampicin, reference compound]
MIC MmpL3 (F255L, V646M, F644I) [4]: 0.030 µM (≈ 0.0247 µg/mL)
MIC QcrBT313I [5]: 0.010 µM (≈ 0.00823 µg/mL)
